Here are results for 32 compounds from US8470830B2, “5-(heterocyclyl)alkyl-N-(arylsulfonyl)indole compounds and their use as 5-HT6 ligands” (Suven Life Sciences Limited, priority 2007, dated 2013).

Molecules are shown by their SMILES. Where a name gives a salt, the structure may show the parent alone. Read-outs that look alike come from different tables or passages of the source.

Data set [1] deals with T1, Human 5-HT6 Receptor (Homo sapiens, UniProt P50406).
T1 construct: expressed in transfected cells; host or cells: HEK293
T1 sequence (P50406 whole entry): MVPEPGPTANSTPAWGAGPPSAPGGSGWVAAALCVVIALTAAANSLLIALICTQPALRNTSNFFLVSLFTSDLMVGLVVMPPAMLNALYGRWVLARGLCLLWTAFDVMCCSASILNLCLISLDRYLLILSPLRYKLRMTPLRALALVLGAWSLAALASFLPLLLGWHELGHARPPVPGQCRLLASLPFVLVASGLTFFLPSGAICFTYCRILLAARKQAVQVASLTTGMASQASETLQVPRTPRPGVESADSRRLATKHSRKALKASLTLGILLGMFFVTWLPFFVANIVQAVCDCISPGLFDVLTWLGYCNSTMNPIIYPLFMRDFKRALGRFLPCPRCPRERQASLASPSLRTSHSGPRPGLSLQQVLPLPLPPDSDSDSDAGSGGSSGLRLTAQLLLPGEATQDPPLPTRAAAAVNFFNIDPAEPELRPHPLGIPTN
The data set is described as follows: Binding assay for human 5-HT6 receptor ([3H]LSD radioligand). On the procedure:
Compounds can be tested according to the following the procedures.
Receptor source: Human recombinant expressed in HEK293 cells
Radioligand [^3H]LSD (60-80 Ci/mmol)
Non-specific determinant: Methiothepin mesylate—[0.1 μM]
Reference compound: Methiothepin mesylate
Positive control: Methiothepin mesylate
Reactions were carried out in […] TRIS-HCl (pH 7.4) containing 10 μM MgCl2, 0.5 mM EDTA for 60 minutes at 37° C. The reaction was terminated by rapid vacuum filtration onto glass fiber filters. Radioactivity trapped onto the filters was determined and compared to control values in order to ascertain any interactions of test compound(s) with the cloned serotonin 5-HT6 binding site.
Literature Reference: Monsma F. J. Jr., et al., Molecular Cloning and Expression of Novel Serotonin Receptor with High Affinity for Tricyclic Psychotropic Drugs.

The subject of data set [2] is animal models for schizophrenia. Particulars: literature (Pouzet et al. 2002); cited from earlier work.
In data set [3] the test system is 5-HT6 receptor. Particulars: literature; cited from earlier work.
Setting [4] is: human recombinant receptor in HEK293 cells, [3H]LSD 1.5 nM, 60 minutes at 37° C., read-out: Radio-ligand binding data at 5-HT6 (h) Ki.

Consider `CCN1CCN(Cc2ccc3c(ccn3S(=O)(=O)c3ccc(Br)cc3)c2)CC1.Cl.Cl`, for which the melting point lay in the range of 264.5 to 267 °C.

Turning to `CCN1CCN(Cc2ccc3c(ccn3S(=O)(=O)c3cccc(C(F)(F)F)c3)c2)CC1.Cl.Cl`, the melting point was 265 to 270 °C.

For the compound `CCN1CCN(Cc2ccc3c(ccn3S(=O)(=O)c3ccc(C)cc3)c2)CC1.Cl.Cl`, the melting point was 263 to 267 °C.

For `CCN1CCN(Cc2ccc3c(ccn3S(=O)(=O)c3ccccc3)c2)CC1.Cl.Cl`, the melting point is 266 to 270.5 °C.

On to `CCN1CCN(Cc2ccc3c(ccn3S(=O)(=O)c3ccc(Cl)cc3)c2)CC1.Cl.Cl`, for which the melting point lay in the range of 265 to 269 °C.

Turning to `CCN1CCN(Cc2ccc3c(ccn3S(=O)(=O)c3ccc(OC)cc3)c2)CC1.Cl.Cl`, the melting point lay within 254 to 258 °C.

In turn, `CN1CCN(Cc2ccc3c(c2)c(Cl)cn3S(=O)(=O)c2cc(C(F)(F)F)ccc2Cl)CC1` (as salt: hydrochloride) [Compound 27, 1-(2-Chloro-5-trifluoromethylbenznesulfonyl)-3-chloro-5-(4-methylpiperazin-1-ylmethyl)-1H-indole dihydrochloride] registered a melting point of 287 to 290 °C.

With `CN1CCN(Cc2ccc3c(ccn3S(=O)(=O)c3ccccc3)c2)CC1.Cl.Cl` [Compound 1, 1-Benzenesulfonyl-5-(4-methylpiperazin-1-ylmethyl)-1H-indole dihydrochloride], the melting point was 266 to 270.5 °C. Moreover, the inhibitory constant (Ki) in data set [1] (setting [4]) was 3.83 nM.

`CN1CCN(Cc2ccc3c(ccn3S(=O)(=O)c3ccc(F)cc3)c2)CC1` [Compound 3, 1-(4-Fluorobenzenesulfonyl)-5-(4-methylpiperazin-1-ylmethyl)-1H-indole]: the inhibition constant (Ki) in data set [1] (setting [4]) came to 14.6 nM.

For `CC(C)c1ccc(S(=O)(=O)n2ccc3cc(CN4CCN(C)CC4)ccc32)cc1` [Compound 5, 1-[4-(1-Methylethyl)benzenesulfonyl]-5-(4-methylpiperazin-1-ylmethyl)-1H-indole], in data set [1] (setting [4]), the Ki came to 17.9 nM.

For the compound `CCN1CCN(Cc2ccc3c(ccn3S(=O)(=O)c3ccc(F)cc3)c2)CC1.Cl.Cl` [Compound 7, 1-(4-Fluorobenzenesulfonyl)-5-(4-ethylpiperazin-1-ylmethyl)-1H-indole dihydrochloride], the melting point lay in the range of 265 to 270 °C. Also, the Ki in data set [1] (setting [4]) was found to be 3.21 nM.

For the compound `CCN1CCN(Cc2ccc3c(ccn3S(=O)(=O)c3ccc(C(C)C)cc3)c2)CC1.Cl.Cl` [Compound 8, 1-[4-{1-Methylethyl)benzenesulfonyl]-5-(4-ethylpiperazin-1-ylmethyl)-1H-indole dihydrochloride], the melting point is 258 to 261 °C. Moreover, in data set [1] (setting [4]), the Ki was determined as 5.81 nM.

In turn, `CCN1CCN(Cc2ccc3c(ccn3S(=O)(=O)c3ccc(F)cc3F)c2)CC1.Cl.Cl` [Compound 10, 1-(2,4-Difluorobenzenesulfonyl)-5-(4-ethylpiperazin-1-ylmethyl)-1H-indole dihydrochloride] came in with a melting point of 271 to 274.5 °C. In data set [1] (setting [4]), the Ki was found to be 12.4 nM.

As to `CCN1CCN(Cc2ccc3c(ccn3S(=O)(=O)c3cccc(Cl)c3Cl)c2)CC1.Cl.Cl` [Compound 14, 1-(2,3-Dichlorobenzenesulfonyl)-5-(4-ethylpiperazin-1-ylmethyl)-1H-indole dihydrochloride], the melting point was 273.5 to 277 °C. Moreover, the inhibitory constant (Ki) in data set [1] (setting [4]) came out at 5.52 nM.

The compound `CCN1CCN(Cc2ccc3c(ccn3S(=O)(=O)c3ccccc3Br)c2)CC1.Cl.Cl` [Compound 15, 1-(2-Bromobenzenesulfonyl)-5-(4-ethylpiperazin-1-ylmethyl)-1H-indole dihydrochloride] came in with a melting point of 255.5 to 259 °C. Besides, the Ki in data set [1] (setting [4]) stood at 2.56 nM.

On to `CN1CCN(Cc2ccc3c(ccn3S(=O)(=O)c3cc(C(F)(F)F)ccc3Cl)c2)CC1` [Compound 19, 1-(2-Chloro-5-trifluoromethylbenzenesulfonyl)-5-(4-methylpiperazin-1-ylmethyl)-1H-indole], for which the Ki in data set [1] (setting [4]) is 11.3 nM.

On to `CN1CCN(Cc2ccc3c(ccn3S(=O)(=O)c3ccccc3Br)c2)CC1` [Compound 20, 1-(2-Bromobenzenesulfonyl)-5-(4-methylpiperazin-1-ylmethyl)-1H-indole], for which, in data set [1] (setting [4]), the inhibition constant (Ki) was found to be 8.3 nM.

Take `CN1CCN(Cc2ccc3c(ccn3S(=O)(=O)c3cccc(Cl)c3Cl)c2)CC1` [Compound 21, 1-(2,3-Dichlorobenzenesulfonyl)-5-(4-methylpiperazin-1-ylmethyl)-1H-indole]: in data set [1] (setting [4]), the inhibition constant Ki is 18 nM.

As to `CN1CCN(Cc2ccc3c(ccn3S(=O)(=O)c3ccc(Cl)cc3)c2)CC1` [Compound 22, 1-(4-Chlorobenzenesulfonyl)-5-(4-methylpiperazin-1-ylmethyl)-1H-indole], in data set [1] (setting [4]), the Ki came out at 3.02 nM.

As to `CN1CCN(Cc2ccc3c(c2)c(Cl)cn3S(=O)(=O)c2ccc(Cl)cc2)CC1` [Compound 24, 1-(4-Chlorobenzenesulfonyl)-3-chloro-5-(4-methylpiperazin-1-ylmethyl)-1H-indole], the melting point fell in the range of 139.2 to 140.4 °C.

On to `CN1CCN(Cc2ccc3c(c2)c(Cl)cn3S(=O)(=O)c2ccc(F)cc2)CC1` [Compound 25, 1-(4-Fluorobenzenesulfonyl)-3-chloro-5-(4-methylpiperazin-1-ylmethyl)-1H-indole], for which the melting point was in the range of 118.8 to 120.1 °C. For the same compound, the Ki in data set [1] (setting [4]) is 2.97 nM.

As for `CN1CCN(Cc2ccc3c(c2)c(Cl)cn3S(=O)(=O)c2ccc(F)cc2F)CC1.Cl.Cl` [Compound 26, 1-(2,4-Difluorobenzenesulfonyl)-3-chloro-5-(4-methylpiperazin-1-ylmethyl)-1H-indole dihydrochloride], the melting point is 251.85 to 253 °C. Besides, the Ki in data set [1] (setting [4]) turned out to be 3.36 nM.

For `CN1CCN(Cc2ccc3c(c2)c(Cl)cn3S(=O)(=O)c2cc(C(F)(F)F)ccc2Cl)CC1` [Compound 27, 1-(2-Chloro-5-trifluoromethylbenznesulfonyl)-3-chloro-5-(4-methylpiperazin-1-ylmethyl)-1H-indole dihydrochloride], in data set [1] (setting [4]), the Ki was 4.16 nM.

Regarding `CC(C)Oc1c(CN2CCN(C)CC2)ccc2c1ccn2S(=O)(=O)c1ccc(F)cc1` [Compound 28, 1-(4-Fluorobenznesulfonyl)-4-isopropoxy-5-(4-methylpiperazin-1-ylmethyl)-1H-indole], in data set [1] (setting [4]), the Ki stood at 276 nM.

In turn, `Cl.Cl.O=S(=O)(c1ccc(F)cc1)n1cc(Cl)c2cc(CN3CCNCC3)ccc21` [Compound 30, 1-(4-Fluorobenzenesulfonyl)-3-chloro-5-(piperazin-1-ylmethyl)-1H-indole dihydrochloride] yielded a melting point of 254 to 259.6 °C. For the same compound, the inhibition constant Ki in data set [1] (setting [4]) was found to be 2.58 nM.

The compound `Cl.Cl.O=S(=O)(c1ccccc1Br)n1ccc2cc(CN3CCNCC3)ccc21` [Compound 31, 1-(2-Bromobenzenesulfonyl)-5-(piperazin-1-ylmethyl)-1H-indole dihydrochloride] had a melting point of 264.2 to 266.9 °C. The Ki in data set [1] (setting [4]) was determined as 7.77 nM.

Regarding `Cl.Cl.O=S(=O)(c1ccc(F)cc1F)n1cc(Cl)c2cc(CN3CCNCC3)ccc21` [Compound 32, 1-(2,4-Difluorobenzenesulfonyl)-3-chloro-5-(piperazin-1-ylmethyl)-1H-indole dihydrochloride], the melting point is 241.5 to 246.1 °C. The same compound displayed a Ki in data set [1] of 5.77 nM.

`Cl.Cl.O=S(=O)(c1ccccc1)n1ccc2cc(CN3CCNCC3)ccc21` [Compound 33, 1-(Benzenesulfonyl)-5-(piperazin-1-ylmethyl)-1H-indole dihydrochloride]: the melting point fell in the range of 250.4 to 256.2 °C. Also, the inhibition constant (Ki) in data set [1] (setting [4]) stood at 2.52 nM.

In turn, `CC(C)c1ccc(S(=O)(=O)n2ccc3cc(CN4CCNCC4)ccc32)cc1.Cl.Cl` [Compound 34, 1-[4-(1-Methylethyl)benzenesulfonyl]-5-(piperazin-1-ylmethyl)-1H-indole dihydrochloride] had a melting point of 250 to 254 °C. Besides, the Ki in data set [1] (setting [4]) worked out at 14.9 nM.

Turning to `COc1ccc(NS(=O)(=O)c2sc3ccc(Cl)cc3c2C)cc1N1CCNCC1` [SB-271046, 5-Chloro-N-(4-methoxy-3-piperazin-1-ylphenyl)-3-methyl-2-benzothiophenesulfonamide], the “activity in animal tests related to positive or negative symptoms of schizophrenia” value in data set [2] was “inactive”.

For `CN(C)CCC=C1c2ccccc2CCc2ccccc21` [amitriptyline], the “affinity for the 5-HT6 receptor” value in data set [3] was “high affinity”.

For `CN1CCN2c3ccccc3Cc3ccccc3C2C1` (stereo not drawn) [mianserin], in data set [3], the “affinity for the 5-HT6 receptor” value was “high affinity”.
